Data: article PMC5688144, “Assay interference and off-target liabilities of reported histone acetyltransferase inhibitors” (Nature Communications, 2017)
Entries after “also recorded” stand apart in the source; their conditions may differ.

Legend:
p300/CBP = conditions: cited from earlier work
[1] = Fluorescence quenching counter-screen; format: physicochemical; conditions: 10 μM fluorophore; 32 nM-100 μM compound
Method: Selected test compounds were assessed for fluorescence quenching using adaptions of previously published procedures[9],[24]. Briefly, test compounds and individual fluorophore standards were incubated together. The fluorescence intensity of these mixtures was compared to the fluorescence intensity of the same fluorophore standards minus test compounds. Each microplate contained positive control columns (DMSO plus fixed concentration of a single fluorophore), negative control columns (DMSO), and experimental wells (test compounds plus fixed concentration of a single fluorophore). […] Final concentration of DMSO was constant at 2.0% (v/v). […] All measurements were performed in ALARM NMR buffer (25 mM sodium phosphate, pH 7.0) at 25 °C. Aliquots of 20 μL buffer were dispensed into microplate wells via ThermoFisher Multidrop dispenser. Microplates were shaken for 1 min on a plate shaker, centrifuged briefly for 1 min at 1000×g, then allowed to incubate at RT for 10 min before measuring fluorescence intensity on a SpectraMax M3 plate reader under reduced lighting. Instrument settings for each fluorophore were unchanged from the aforementioned autofluorescence studies.

human La antigen = molecular target: T1, human La antigen (Homo sapiens, UniProt P05455, T302N); assay: ALARM NMR; format: binding; conditions: 400 μM compound; for ALARM NMR, (-) DTT: 0 mM DTT; for ALARM NMR, (+) DTT: DTT present; for ALARM NMR interpretation: with and without DTT; for ALARM NMR readout: overall readout
T1 construct: amino acids 100–324 of the human La antigen (plus T302N mutation); 6xHis (N); 6xHis (C); host or cells: Escherichia coli Rosetta cells
T1 sequence (P05455 100-324 T302N): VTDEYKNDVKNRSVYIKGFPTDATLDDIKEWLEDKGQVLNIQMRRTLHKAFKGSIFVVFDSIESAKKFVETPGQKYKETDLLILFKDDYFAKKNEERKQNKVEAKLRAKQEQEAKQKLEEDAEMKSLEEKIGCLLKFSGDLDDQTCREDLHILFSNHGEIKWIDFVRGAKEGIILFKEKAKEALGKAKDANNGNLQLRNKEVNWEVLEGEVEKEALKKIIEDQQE
From the text: The gene encoding amino acids 100–324 of the human La antigen (plus T302N mutation) was cloned into pET28b + vector (Novagen) with both an N- and C-terminal 6xHis tag (addgene.org, plasmid ID 90209). The sequence identity of the ALARM NMR plasmid construct was verified by Sanger sequencing of the transgene region and next-generation sequencing of the whole plasmid.
Plasmid was transformed into Escherichia coli Rosetta cells (Novagen) and cultured in M9 minimal media. The La antigen was labeled by adding ^13C-labeled amino acid precursors ([3-^13C]-α-ketobutyrate and [3,3′-^13C]-α-ketoisovalerate sodium salts; Cambridge Isotope Laboratories; 250 mg L^−1 final concentrations) to culture medium 30 min before induction with IPTG (1 mM final concentration). Bacteria were collected after incubation at 25 °C for 8 h and washed with ice-cold phosphate-buffered saline (PBS). Washed cells were lysed by French press in ice-cold lysis buffer (50 mM Tris, pH 7.6, 300 mM NaCl, 10% glycerol (v/v), 5 mM β-mercaptoethanol (BME), 5 mM imidazole, 2 mM MgCl2, benzonase, and protease inhibitor cocktail), followed by an additional brief sonication step (3 × 15 s pulse sequence) on ice. This lysed solution was centrifuged (30,000×g for 30 min, two cycles) to remove cellular debris, then loaded onto a pre-washed Ni-NTA bead column (Qiagen) kept at 4 °C and washed with buffer (50 mM Tris, pH 7.6, 300 mM NaCl, 10% glycerol (v/v), 5 mM BME, 5 mM imidazole). The La antigen was eluted with an elution buffer (50 mM Tris, pH 7.6, 300 mM NaCl, 10% glycerol (v/v), 5 mM BME, imidazole gradient ranging from 5 mM to 0.5 M). […] Aliquots were flash-frozen in liquid N2 and stored at −80 °C until further use. Before use, aliquots of ~150 μM protein were incubated in the presence of 20 mM DTT at 37 °C for 1 h, then dialyzed (25 mM sodium phosphate buffer, pH 7.0 (no DTT)) in 16 h cycles at 4 °C with constant nitrogen bubbling and with gentle stirring, for three total buffer cycles.
For standard testing conditions, the [^1H-^13C]-HMQC spectra were acquired in 25 mM sodium phosphate buffer, pH 7.0, 10% D2O (v/v; CIL) ± 400 μM test compounds delivered from the aforementioned stock solutions, and ± 20 mM non-deuterated DTT. Final concentration of DMSO was 4.0% (v/v). Reaction solutions were mixed, then centrifuged for 5 min (1000×g) in non-binding 384-well microplates at RT, then incubated at 37 °C for 1 h and then 30 °C for 15 h before obtaining spectra. Samples were checked for evidence of gross precipitation. Data were recorded at 298 K on a Bruker UltraShield 700 MHz NMR spectrometer equipped with a Bruker 1.7 mm TCI Cryoprobe and Bruker SampleJet autosampler. Samples were tested at 50 μM protein concentrations using 16 scans, 2048 complex points in F2, and 80 points in F1 using standard protein [^1H-^13C]-HMQC and water suppression pulse sequences.
Data were analyzed in TopSpin™ 3.5 (Bruker). Reactions were normalized to equivalent DMSO controls. Non-reactive compounds were identified by the absence of chemical shifts or changes in peak intensities (^13C-methyl) ± 20 mM DTT.

Row | Molecule | IC50 (p300/CBP; original report, 27 (Supplementary References)) [µM] | Quenching counter-screen [1] | ALARM NMR, (-) DTT (human La antigen) | ALARM NMR, (+) DTT (human La antigen) | ALARM NMR interpretation (human La antigen) | ALARM NMR readout (human La antigen) | % inhibition, p300/CBP (p300/CBP; @ 25 µM, ref 13 (Supplementary References)) [%]
1 | CC1=NN(c2ccc(C(=O)O)cc2)C(=O)/C1=C/c1ccc(-c2cc(C)c(C)cc2[N+](=O)[O-])o1 [Compound 1, C646] | […] | Flagged (Significant fluorescence quenching was defined as signal reduction greater than 25% of the corresponding fluorophore signal at any test compound concentration) | positive | Negative | Thiol-reactive |  | 
2 | O=c1c2cccnc2sn1Cc1ccc(C(F)(F)F)cc1 [Compound 3, PU141] |  | Negative | Positive | Negative | Thiol-reactive |  | 
3 | Cc1cc(O)cc(C)c1C=C1C(=O)N(Cc2ccccc2)C(=O)N(Cc2ccccc2)C1=O [Compound 4, EML425] |  | Flagged (Significant fluorescence quenching was defined as signal reduction greater than 25% of the corresponding fluorophore signal at any test compound concentration) | Positive | Negative | Thiol-reactive | positive | 
4 | COc1ccc(S(=O)(=O)ON=C2C=C(C)C(=O)C(C)=C2)cc1 [Compound 5, L002] |  | Negative | Positive | Negative | Thiol-reactive |  | 
5 | C=C1C(=O)O[C@H](CCC)[C@H]1C(=O)O [Compound 6, MB-3] |  | Flagged (Significant fluorescence quenching was defined as signal reduction greater than 25% of the corresponding fluorophore signal at any test compound concentration) | Positive | Negative | Thiol-reactive |  | 
6 | Clc1ccc(-c2csc(NN=C3CCCC3)n2)cc1 [Compound 7, CPTH2] |  | Flagged (Significant fluorescence quenching was defined as signal reduction greater than 25% of the corresponding fluorophore signal at any test compound concentration) | Positive | Negative | Thiol-reactive |  | 
7 | CCCCCCCCCCCC1=C(O)C(=O)C=C(O)C1=O [Compound 9, Embelin] |  | Flagged (Significant fluorescence quenching was defined as signal reduction greater than 25% of the corresponding fluorophore signal at any test compound concentration) | Positive | Positive | Thiol-reactive, nonspecific perturbation |  | 25
8 | O=C(O[C@@H]1Cc2c(O)cc(O)cc2O[C@@H]1c1cc(O)c(O)c(O)c1)c1cc(O)c(O)c(O)c1 [Compound 10, (-)-Epigallocatechin gallate] |  | Flagged (Significant fluorescence quenching was defined as signal reduction greater than 25% of the corresponding fluorophore signal at any test compound concentration) | Positive | Negative | Thiol-reactive |  | 
9 | COc1cc(/C=C/C(=O)CC(=O)/C=C/c2ccc(O)c(OC)c2)ccc1O [Compound 11, Curcumin] |  | Flagged (Significant fluorescence quenching was defined as signal reduction greater than 25% of the corresponding fluorophore signal at any test compound concentration) | Partial | Negative | Equivocal |  | 
10 | Cc1cc2c(C(C)C)c(O)c(O)c(C=O)c2c(O)c1-c1c(C)cc2c(C(C)C)c(O)c(O)c(C=O)c2c1O [Compound 16, Gossypol] |  | Flagged (Significant fluorescence quenching was defined as signal reduction greater than 25% of the corresponding fluorophore signal at any test compound concentration) | Positive | Positive | nonspecific protein perturbation |  | 
11 | COc1cc(/C=C/c2cc(/C=C/c3ccc(O)c(OC)c3)n(-c3ccc(C(=O)[O-])cc3)n2)ccc1O.[Na+] [Compound 17, CTK7A] |  | Flagged (Significant fluorescence quenching was defined as signal reduction greater than 25% of the corresponding fluorophore signal at any test compound concentration) | Positive | Positive | several new peaks independent of DTT; also recorded: Nonspecific perturbation (new peaks) |  | 
12 | COc1ccc(/C(Cl)=C(/C=O)c2ccc(OC)cc2)cc1 [Compound 18, Windorphen] |  | Flagged (Significant fluorescence quenching was defined as signal reduction greater than 25% of the corresponding fluorophore signal at any test compound concentration) | Negative | Negative | Inert as tested | negative | 
13 | Cl.Cl.O=C(O)Cn1nnc(-c2ccc(CN(CCCCOc3ccc(CN4CCCC4)cc3)CCc3ccccc3)cc2)n1 [Compound 20, TH1834] |  | Flagged (Significant fluorescence quenching was defined as signal reduction greater than 25% of the corresponding fluorophore signal at any test compound concentration) | Negative | Negative | Inert as tested |  | 
14 | Plumbagin [Compound 8] |  | Negative | Positive | Negative | Thiol-reactive |  | 
